Assay results reported in patent US20260124192A1, “COMPOUNDS, COMPOSITIONS, AND METHODS OF TREATING RNA VIRAL INFECTIONS” (priority 2024, published 2026).
pEC50, pIC50: −log10 of the molar value. Where two headings read alike, the source gives them in different places.

Columns and labels:
[1] = test system: CoV229E; test: Anti-Coronavirus 229E cytoprotection (CPE) assay, MRC-5 (Method 3); assay type: cell-based, human Coronavirus 229E; conditions: for EC50: Human coronavirus 229E, MRC5, […]
[2] = test system: HCV genotype 1b replicon; test: microbe, parasite or virus in culture; assay type: cell-based, Hepatitis C Virus; conditions: for pEC50 / HCV 1b - percent effect: Huh-luc/neo-ET replicon; for pEC50: 72 hours, luciferase, read-out: HCV 1b - EC50; for HCV 1b - percent effect: @ 10 μM
[3] = XTT cell viability assay, Huh-luc/neo-ET; assay type: cell-based; conditions: human, Huh-luc/neo-ET cells, XTT, 72 hours, read-out: HCV 1b - TC50
Description: (§1) Twenty-four hours after seeding the cells, the cell culture supernatant was removed from each well and replaced with 175 μL fresh complete medium minus G418. Test compounds were evaluated at a high-test concentration of 10 μM and five serial half-logarithmic dilutions in three biological replicates. In three biological replicates, Sofosbuvir was evaluated in parallel at a high-test concentration of 1 μM and five serial half-logarithmic dilutions. Compounds were first serially diluted in DMSO to 400× of each final in-well concentration. An intermediate 8× solution was prepared in a complete medium and then added to the cells in a volume of 25 μL per well. A complete medium containing an equal percentage of DMSO (v/v) was added to vehicle-treated control cells. The final DMSO concentration was 0.25% (v/v) for all samples. The cells were incubated for an additional 72 hours at 37° C./5% CO2, then HCV replication was measured by luciferase activity and cell viability was assessed in parallel using an XTT colorimetric assay.
(§2) Huh-luc/neo-ET cell viability was measured at 72 hours after treatment using the tetrazolium dye XTT (2,3-bis(2-methoxy-4-nitro-5-sulfophenyI)-5[(phenylamino)carbonyl]-2H-tetrazolium hydroxide). Mitochondrial enzymes of metabolically active cells metabolize XTT-tetrazolium to a soluble formazan product. XTT solution was prepared fresh at 1 mg/mL in DMEM. Phenazine methosulfate (PMS) solution was prepared at 0.15 mg/mL in PBS and stored in the dark at −20° C. An XTT/PMS stock was prepared immediately before use by adding 40 μL of PMS per ml of XTT solution. Fifty microliters (50 μL) XTT/PMS were added per well, and the cells were incubated for 4 hours at 37° C. The cell culture plates were then sealed with adhesive plate sealers and shaken gently or inverted several times to mix the soluble formazan product. The formazan product was measured spectrophotometrically by absorbance at 450/650 nm on a Vmax plate reader (Molecular Devices). The raw data in Softmax Pro 5.4.2 software was imported into Microsoft Excel for further analysis. Data are presented as absorbance values (450/650 nm) or the percentage of viable cells relative to vehicle-treated control (mean+1—standard deviation, n=3 biological replicates from one independent experiment).

[4] = test system: MCF7 wild-type cell lines; test: MCF7 growth inhibition assay (Cell Titre Glo 2.0); assay type: cell-based; conditions: Homo sapiens
Description: The growth inhibition properties of inhibitors on MCF7 wild-type cell lines were evaluated using the Cell Titre Glo 2.0 cell viability reagent. The assay utilized 384-well black clear bottom plates with 20 μl of MCF7 wild-type cell suspension mixed with reference/test compounds and 20 μl of Cell Titre Glo 2.0 reagent. Cells were seeded at a density of 1000 cells/well in DMEM High Glucose culture media+10% Fetal Bovine Serum (FBS). Staurosporine and Camptothecin served as positive controls for confirming cytotoxicity at a concentration of 30 μM, and vehicle control of 1% DMSO was used to standardize conditions across all test points. The assay and culture media both contained 1% DMSO. Assays were conducted in duplicate for each concentration of the test compounds. The incubation period for the assay was set at 120 hours, after which growth inhibition was assessed. Using a multi-mode reader, the assay readout was based on luminescence measured in Relative Light Units (RLUs). The viability luminescence signal was monitored continually from the same wells over an extended period, allowing for detailed analysis of cell viability. Measurements were taken using an integration time ranging from 0.25 to 1 second across plates designated for various time points.
Cells were maintained and seeded in 384 […] plates, maintaining 1000 cells/well. Seeded plates were incubated at 37° C., 5% CO2 for 16-18 hours to ensure optimal cell adherence and growth. Post-incubation, reference, and test compounds were added carefully to the wells for further processing. Plates were incubated again at 37° C., 5% CO2 for 120 hours (5 days) to allow compound effects. This was followed by the addition of CTG reagent as per the kit's instruction protocol for 30 minutes and RLU data to be recorded. Post plate read data to be analyzed using GraphPad Prism for software IC50 value generation.
Next, the NCEs were tested for selective estrogen regulation modulation activity by using a growth inhibition assay. The assay is performed on MCF7 cells, which are derived from a hormone-dependent breast cancer that stops growing upon estrogen receptor inhibition. […] Staurosporine and Camptothecin served as positive controls for cytotoxicity and 1% DMSO as the vehicle control.

[5] = Cytotoxicity, XTT, MRC-5; conditions: human
[6] = test system: Huh-luc/neo-ET cells; test: XTT cell viability assay, Huh-luc/neo-ET; assay type: cell-based; conditions: XTT, 72 hours, read-out: HCV 1b - TC50
Description: as §1, §2

[7] = test system: MRC-5 cells; test: Cytotoxicity, XTT, MRC-5; conditions: read-out: CoV229E - TC50; MRC-5; XTT; six days
[8] = MCF7 growth inhibition, 120 hours, read-out: MCF-7 IC50
[9] = read-out: CoV229E - EC50 (μM), MRC-5, XTT cytoprotection, six days

Compound | pEC50 ([2]; Hepatitis C virus) | CC50 at 72 h [3] [µM] | pIC50 [4, 8] | CC50 at 6 days [5] [µM] | EC50 [1, 9] [µM] | other results
O=C(O)c1ccc(-c2c(CC3CCCC3)c3ccc(F)cc3n2Cc2ccc(OCCC3CCCCC3)cc2)cc1 [MCAA-03] | 5.07 | > 10 | < 5.00 | 2.47 | – | CoV229E - percent effect ([1]; @ 5 μM, MRC-5): 24% @
Nc1cccc2c1nc(-c1ccc(F)cc1)n2Cc1ccc(OCCN2CCCCC2)cc1 [MCAA-10] | 5.14 | > 10 | 6.28 | > 5 | 2.85 | –
COc1ccc(-c2c(Cc3ccc(OCCC4CCCCC4)cc3)c3ccc(OC)cc3n2C)cc1 [MCAA-05] | < 5.00 | > 10 | < 5.00 | > 5 | > 5 | –
COc1ccc(-c2c(Cc3ccc(OCCN4CCCCC4)cc3)c3ccc(OC)cc3n2C)cc1 [MCAA-01] | – | – | – | – | – | pEC50 ([1]; MRC-5, XTT cytoprotection, six days, read-out: CoV229E - EC50): 5.73; CC50 [6]: > 10 µM; CC50 [7]: > 5 µM
O=[N+]([O-])c1cccc2c1nc(-c1ccc(F)cc1)n2Cc1ccc(OCCC2CCCCC2)cc1 [MCAA-15] | – | > 10 | 6.24 | > 5 | > 5 | HCV 1b - percent effect [2]: 38% @
Nc1cccc2nc(-c3ccc(F)cc3)n(Cc3ccc(OCCN4CCCCC4)cc3)c12 [MCAA-08] | 5.02 | > 10 | < 5.00 | > 5 | – | CoV229E - percent effect ([1]; @ 5 μM, MRC-5): 33% @
O=C(O)c1ccc(-c2c(CC3CCCC3)c3ccc(F)cc3n2Cc2ccc(OCCN3CCCCC3)cc2)cc1 [MCAA-02] | < 5.00 | > 10 | < 5.00 | > 5 | 2.78 | –
Fc1ccc(-c2cc3sccc3n2Cc2ccc(OCCC3CCCCC3)cc2)cc1 [MCAA-07] | – | > 10 | < 5.00 | > 5 | – | CoV229E - percent effect ([1]; @ 5 μM, MRC-5): 11% @; HCV 1b - percent effect [2]: 30% @
Cc1c(-c2ccc(O)cc2)n(Cc2ccc(OCCC3CCCCC3)cc2)c2ccc(O)cc12 [MCAA-04] | < 5.00 | > 10 | 5.65 | 2.7 | – | CoV229E - percent effect ([1]; @ 1.58 μM, MRC-5): 25% @
Fc1ccc(-c2cc3sccc3n2Cc2ccc(OCCN3CCCCC3)cc2)cc1 [MCAA-06] | < 5.00 | > 10 | 5.42 | 1.53 | 0.29 | –
O=[N+]([O-])c1cccc2nc(-c3ccc(F)cc3)n(Cc3ccc(OCCC4CCCCC4)cc3)c12 [MCAA-14] | – | > 10 | 5.36 | > 5 | – | CoV229E - percent effect ([1]; @ 5 μM, MRC-5): 31% @; HCV 1b - percent effect [2]: 34% @
Nc1cccc2nc(-c3ccc(F)cc3)n(Cc3ccc(OCCC4CCCCC4)cc3)c12 [MCAA-09] | < 5.00 | > 10 | 5.92 | > 5 | – | CoV229E - percent effect ([1]; @ 5 μM, MRC-5): 13% @
O=[N+]([O-])c1cccc2nc(-c3ccc(F)cc3)n(Cc3ccc(OCCN4CCCCC4)cc3)c12 [MCAA-12] | 5.56 | > 10 | 5.94 | > 5 | 2.94 | –
CC(C)OC(=O)[C@H](C)N[P@](=O)(OC[C@H]1O[C@@H](n2ccc(=O)[nH]c2=O)[C@](C)(F)[C@@H]1O)Oc1ccccc1 [Sofosbuvir, reference compound] | – | > 1 | – | – | – | EC50 ([2]; Hepatitis C virus, Huh-luc/neo-ET, 72 h, read-out: HCV 1b - EC50 (μM)): 0.06 µM
Nc1cccc2c1nc(-c1ccc(F)cc1)n2Cc1ccc(OCCC2CCCCC2)cc1 [MCAA-11] | 5.38 | 5.82 | 5.78 | > 5 | 2.74 | –
CCC(CC)COC(=O)[C@H](C)N[P@](=O)(OC[C@H]1O[C@@](C#N)(c2ccc3c(N)ncnn23)[C@H](O)[C@@H]1O)Oc1ccccc1 [Remdesivir, reference compound] | – | – | – | > 1 | – | EC50 ([1]; read-out: CoV229E - EC50 (μM)): 0.14 µM
C[C@]12CC[C@@H]3c4ccc(O)cc4C[C@@H](CCCCCCCCC[S+]([O-])CCCC(F)(F)C(F)(F)F)[C@H]3[C@@H]1CC[C@@H]2O (stereo partly shown) [Fulvestrant, reference compound] | – | – | – | – | – | IC50 ([4]; MCF7, 120 h, read-out: MCF-7 IC50 (μM)): 0.00089 µM; pIC50 ([4]; MCF7, read-out: IC50, MCF7 growth inhibition): 9.05
O=[N+]([O-])c1cccc2c1nc(-c1ccc(F)cc1)n2Cc1ccc(OCCN2CCCCC2)cc1 [MCAA-13] | 5.15 | > 10 | 5.61 | > 5 | 2.96 | –
